Results reported in EPA's CvTdb concentration-time database.

Key:
Rat [1] = experiment: concentration in plasma after dosing; conditions: 4 h; dosed: Di-n-butyl phthalate; 20 mg/kg; iv; Male; Sprague-Dawley
Rat [2] = experiment: concentration in plasma after dosing; conditions: 40 min; dosed: Di-n-butyl phthalate; 20 mg/kg; iv; Male; Sprague-Dawley
Rat [3] = experiment: concentration in plasma after dosing
Rat [4] = experiment: concentration in kidney after dosing; conditions: dosed: Perfluorodecanoic acid, 10 mg/kg, oral
Rat [5] = experiment: concentration in brain after dosing; conditions: dosed: Perfluorodecanoic acid, 10 mg/kg, oral
Rat [6] = experiment: concentration in liver after dosing; conditions: dosed: Perfluorodecanoic acid, 10 mg/kg, oral
Rat [7] = experiment: concentration in liver after dosing; conditions: 1 h; dosed: Perfluorodecanoic acid; 10 mg/kg; oral; Male; Harlan Sprague Dawley
Rat [8] = experiment: concentration in plasma after dosing; conditions: 22 h; dosed: Primidone; 130 mg/kg; oral; Female; F344
Rat [9] = experiment: concentration in plasma after dosing; conditions: 5 min; dosed: dichloroacetic acid; 10 mg/kg; oral; Male; Harlan Sprague Dawley

CCCCOC(=O)c1ccccc1C(=O)O [Mono-n-butyl phthalate]
Conditions | concentration in plasma [ng/mL]
Rat [1] | 678
Rat [2] | 5350

Rat [3], dosed: Di-n-butyl phthalate, Male, Sprague-Dawley
Conditions | concentration in plasma [ng/mL]
0.25 h, 100 mg/kg, oral | 26200
0.5 h, 50 mg/kg, oral | 16600
0.5 h, 100 mg/kg, oral | 40300
1 h, 20 mg/kg, iv | 3060
1 h, 50 mg/kg, oral | 5560
1 h, 100 mg/kg, oral | 23500
1.5 h, 20 mg/kg, iv | 517
2 h, 20 mg/kg, iv | 945
2 h, 50 mg/kg, oral | 2700
2 h, 100 mg/kg, oral | 9480
2 h, 200 mg/kg, oral | 114000
3 h, 20 mg/kg, iv | 1380
3 h, 50 mg/kg, oral | 2390
3 h, 100 mg/kg, oral | 6880
4 h, 20 mg/kg, iv | 667
4 h, 100 mg/kg, oral | 10000
5 h, 20 mg/kg, iv | 1120
5 min, 20 mg/kg, iv | 29400
5 min, 50 mg/kg, oral | 3240
5 min, 100 mg/kg, oral | 6120
6 h, 20 mg/kg, iv | 627
6 h, 50 mg/kg, oral | 4090
6 h, 100 mg/kg, oral | 7390
8 h, 20 mg/kg, iv | 522
10 h, 50 mg/kg, oral | 506
10 h, 100 mg/kg, oral | 3970
10 min, 20 mg/kg, iv | 31300
10 min, 50 mg/kg, oral | 20500
15 h, 50 mg/kg, oral | 629
15 h, 100 mg/kg, oral | 538
20 h, 100 mg/kg, oral | 492
20 h, 200 mg/kg, oral | 1820
20 min, 20 mg/kg, iv | 24200
20 min, 50 mg/kg, oral | 13800
24 h, 100 mg/kg, oral | 517
40 min, 20 mg/kg, iv | 5840
40 min, 50 mg/kg, oral | 12000

O=C(O)C(F)(F)C(F)(F)C(F)(F)C(F)(F)C(F)(F)C(F)(F)C(F)(F)C(F)(F)C(F)(F)F [Perfluorodecanoic acid]
Conditions | concentration in brain, Rat [5] [ng/g] | concentration in kidney, Rat [4] [ng/g] | concentration in liver, Rat [6] [ng/g]
1 h, Female, Harlan Sprague Dawley | 581 | 18100 | 43800
1 h, Male, Harlan Sprague Dawley | – | 12400 | 56500
24 h, Female, Harlan Sprague Dawley | 2750 | 46800 | 102000
24 h, Male, Harlan Sprague Dawley | 2360 | 24600 | 107000
24 h, Male, Harlan Sprague Dawley - this seems too small | 2580 | 29500 | 125000
864 h, Female, Harlan Sprague Dawley | 926 | 18300 | 45900
864 h, Male, Harlan Sprague Dawley | 1240 | 11100 | 56700
1848 h, Female, Harlan Sprague Dawley | 526 | 5210 | 21200
1848 h, Male, Harlan Sprague Dawley | 602 | 4000 | 32600
3360 h, Female, Harlan Sprague Dawley | – | 2740 | 7920
3360 h, Male, Harlan Sprague Dawley | – | 1530 | 9980

Conditions | concentration in liver [ng/g]
Rat [7] | 58100

Rat [3], dosed: Perfluorodecanoic acid, 2 mg/kg
Conditions | concentration in plasma [ng/mL]
0.5 h, oral, Male, Harlan Sprague Dawley | 1650
1 h, iv, Male, F344 | 5650
1 h, oral, Male, Harlan Sprague Dawley | 3170
2 h, oral, Male, Harlan Sprague Dawley | 3960
5 min, iv, Female, Harlan Sprague-Dawley | 7650
5 min, iv, Male, F344 | 7380
6 h, iv, Male, F344 | 5650
12 h, iv, Female, Harlan Sprague-Dawley | 5320
12 h, iv, Male, F344 | 6200
12 h, oral, Male, Harlan Sprague Dawley | 7680
24 h, iv, Male, F344 | 4850
24 h, oral, Male, Harlan Sprague Dawley | 6970
192 h, iv, Female, Harlan Sprague-Dawley | 5740
192 h, iv, Male, F344 | 2770
192 h, oral, Male, Harlan Sprague Dawley | 4850
528 h, iv, Male, F344 | 2240
528 h, oral, Male, Harlan Sprague Dawley | 2640
864 h, iv, Male, F344 | 1230
1200 h, iv, Female, Harlan Sprague-Dawley | 2250
1200 h, iv, Male, F344 | 719
1200 h, oral, Male, Harlan Sprague Dawley | 1700
1848 h, iv, Male, F344 | 437
1848 h, oral, Male, Harlan Sprague Dawley | 907
2520 h, iv, Male, F344 | 124
2520 h, oral, Male, Harlan Sprague Dawley | 687
3360 h, iv, Male, F344 | 277
3360 h, oral, Male, Harlan Sprague Dawley | 498

CCC1(c2ccccc2)C(=O)NC(=O)NC1=O [Phenobarbital]
Conditions | concentration in plasma [ng/mL]
Rat [8] | 2490

concentration in plasma [ng/mL], Rat [3], dosed: Primidone, oral
Conditions | 0.25 h | 0.5 h | 1.5 h | 3 h | 6 h | 9 h | 12 h | 18 h | 22 h | 30 h
30 mg/kg, Female, F344 | – | – | 410 | 540 | 1060 | 900 | 1110 | 860 | 930 | –
30 mg/kg, Male, F344 | 300 | 330 | 2030 | 2980 | 3510 | 2720 | 2430 | 1660 | 1060 | –
80 mg/kg, Female, F344 | – | – | 630 | 1100 | 1960 | 2190 | 1980 | 1960 | 1500 | –
80 mg/kg, Female, Harlan Sprague-Dawley | 340 | 930 | – | – | – | – | 5660 | – | – | –
80 mg/kg, Male, F344 | – | – | 3330 | 3620 | 6530 | 7430 | – | 4020 | 2870 | –
130 mg/kg, Female, F344 | – | 960 | 870 | 4500 | 9670 | 3050 | 9030 | – | 2040 | 1920
130 mg/kg, Female, Harlan Sprague-Dawley | – | – | 4090 | – | – | – | – | – | – | –
130 mg/kg, Male, F344 | – | – | 4150 | – | 7700 | 9610 | – | – | 4120 | 2260
130 mg/kg, Male, Harlan Sprague Dawley | – | – | – | 840 | – | – | 2490 | – | – | –

O=C(O)C(Cl)Cl [dichloroacetic acid]
Conditions | concentration in plasma [ng/mL]
Rat [9] | 430

Rat [3], dosed: dichloroacetic acid
Conditions | concentration in plasma [ng/mL]
0.25 h, 10 mg/kg, oral, Male, Harlan Sprague Dawley | 1600
0.25 h, 100 mg/kg, oral, Male, F344 | 24900
0.5 h, 10 mg/kg, oral, Male, Harlan Sprague Dawley | 224
1 h, 40 mg/kg, oral, Female, Harlan Sprague Dawley | 5910
1 h, 60 mg/kg, iv, Female, Harlan Sprague-Dawley | 23200
1.25 h, 40 mg/kg, oral, Female, Harlan Sprague Dawley | 3600
1.25 h, 100 mg/kg, oral, Male, F344 | 23000
1.5 h, 40 mg/kg, oral, Female, Harlan Sprague Dawley | 4500
2 h, 40 mg/kg, oral, Female, Harlan Sprague Dawley | 2200
2 h, 60 mg/kg, iv, Female, Harlan Sprague-Dawley | 1670
2 h, 100 mg/kg, oral, Male, F344 | 44600
2 min, 10 mg/kg, iv, Male, F344 | 23500
2 min, 10 mg/kg, oral, Male, Harlan Sprague Dawley | 222
2 min, 40 mg/kg, oral, Female, Harlan Sprague Dawley | 1530
2 min, 100 mg/kg, oral, Male, F344 | 1590
4 h, 100 mg/kg, oral, Male, F344 | 49600
5 min, 10 mg/kg, iv, Male, F344 | 15300
5 min, 10 mg/kg, oral, Male, Harlan Sprague Dawley | 822
5 min, 40 mg/kg, oral, Female, Harlan Sprague Dawley | 3100
5 min, 100 mg/kg, oral, Male, F344 | 7760
6 h, 100 mg/kg, oral, Male, F344 | 25000
8 h, 100 mg/kg, oral, Male, F344 | 48300
10 min, 10 mg/kg, iv, Male, F344 | 7720
10 min, 10 mg/kg, oral, Male, Harlan Sprague Dawley | 1450
10 min, 40 mg/kg, oral, Female, Harlan Sprague Dawley | 9870
10 min, 100 mg/kg, oral, Male, F344 | 11800
20 min, 10 mg/kg, iv, Male, F344 | 1840
20 min, 10 mg/kg, oral, Male, Harlan Sprague Dawley | 829
20 min, 40 mg/kg, oral, Female, Harlan Sprague Dawley | 5350
20 min, 100 mg/kg, oral, Male, F344 | 5620
40 min, 10 mg/kg, oral, Male, Harlan Sprague Dawley | 184
40 min, 40 mg/kg, oral, Female, Harlan Sprague Dawley | 13900
40 min, 100 mg/kg, oral, Male, F344 | 53800
50 min, 10 mg/kg, oral, Male, Harlan Sprague Dawley | 170
